For one data set, the target named is T1, β2 -receptors (Cavia porcellus, UniProt Q8K4Z4).
T1 construct: tested on anesthetized guinea pigs; from tissue; host or cells: living anesthetized guinea pig, airways (Konzett-Rossler)
Description: β2-mimetic activity: antagonism to acetylcholine bronchospasm in anesthetized guinea pigs (Konzett-Rossler). The class given is in vivo. To be noted: for ED50: guinea pig, iv, bronchospasm by 20 γ/kg acetylcholine i.v., test compound i.v., graphic extrapolation (Table I); for Duration of activity (β2 -mimetic activity): i.v. (Table I). On the procedure:
(§1) The compounds of this invention were tested for toxicity and with regard to their action on the β-receptors in warm-blooded animals, such as cats and guinea pigs, by the methods described below, and the following test results were obtained for representative species of the genus, where
The β2 -mimetic activity was tested on anesthetized guinea pigs as antagonism to bronchospasm provoked by intravenous administration of 20 γ of acetylcholine per kg body weight (according to the method of Konzett-Rossler) by intravenous administration of the test compound. From the average percentage decrease of the bronchospasm produced by various doses of the test compound, a median effective dose (ED50) was determined by graphic extrapolation (see Table I).

Another data set concerns the target T2, β1 -receptors (Felis catus, UniProt Q9TST6).
T2 construct: tested on anesthetized cats; from tissue; host or cells: living anesthetized cat, heart (heart rate)
Description: β1-blocking activity: antagonism to tachycardia provoked by N-isopropyl-noradrenalin sulfate in anesthetized cats. The data set is classed as in vivo. To be noted: cat, iv, tachycardia by 1.0 γ/kg i.v. N-isopropyl-noradrenalin sulfate, graphic extrapolation (Table II), read-out: Blocking action on the β1 -receptors ED50. On the procedure:
as §1
The β1 -blocking activity was tested on anesthetized cats as antagonism to tachycardia provoked by a standard dose of 1.0 γ/kg i.v. of N-isopropyl-noradrenalin sulfate. From the average percentage reduction in heart rate acceleration caused by N-isopropyl-noradrenalin sulfate, obtained by various doses of the test compound in question, a median effective dose (ED50) was determined by graphic extrapolation (see Tables II and III).

The nature of data set [1]: acute toxicity in mice (LD50, Litchfield and Wilcoxon). To be noted: mouse, in vivo, iv, groups of 10, i.v., deaths within 14 days (Table II), read-out: LD50. On the procedure:
as §1
The acute toxicity of the compounds was determined on groups of 10 mice.

Structures are written as SMILES. Where a name gives a salt, the structure may show the parent alone.

The text below walks through data of patent US4119710A, “Bronchospasmolytic 1-(p-amino-phenyl)-2-amino-ethanols-(1) and salts” (Boehringer Ingelheim GmbH, priority 1972, dated 1978).

T1 sequence (Q8K4Z4 whole entry): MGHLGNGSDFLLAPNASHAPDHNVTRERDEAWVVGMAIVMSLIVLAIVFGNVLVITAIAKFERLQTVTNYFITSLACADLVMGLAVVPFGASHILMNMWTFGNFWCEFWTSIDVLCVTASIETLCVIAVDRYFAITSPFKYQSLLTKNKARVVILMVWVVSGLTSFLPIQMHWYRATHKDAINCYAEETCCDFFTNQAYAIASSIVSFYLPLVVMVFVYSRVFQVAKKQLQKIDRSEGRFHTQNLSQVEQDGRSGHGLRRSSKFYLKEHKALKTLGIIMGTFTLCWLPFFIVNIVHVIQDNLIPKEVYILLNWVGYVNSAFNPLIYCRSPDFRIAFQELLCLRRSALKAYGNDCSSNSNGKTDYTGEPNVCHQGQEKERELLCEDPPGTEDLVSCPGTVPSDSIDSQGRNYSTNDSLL
T2 sequence (Q9TST6 whole entry): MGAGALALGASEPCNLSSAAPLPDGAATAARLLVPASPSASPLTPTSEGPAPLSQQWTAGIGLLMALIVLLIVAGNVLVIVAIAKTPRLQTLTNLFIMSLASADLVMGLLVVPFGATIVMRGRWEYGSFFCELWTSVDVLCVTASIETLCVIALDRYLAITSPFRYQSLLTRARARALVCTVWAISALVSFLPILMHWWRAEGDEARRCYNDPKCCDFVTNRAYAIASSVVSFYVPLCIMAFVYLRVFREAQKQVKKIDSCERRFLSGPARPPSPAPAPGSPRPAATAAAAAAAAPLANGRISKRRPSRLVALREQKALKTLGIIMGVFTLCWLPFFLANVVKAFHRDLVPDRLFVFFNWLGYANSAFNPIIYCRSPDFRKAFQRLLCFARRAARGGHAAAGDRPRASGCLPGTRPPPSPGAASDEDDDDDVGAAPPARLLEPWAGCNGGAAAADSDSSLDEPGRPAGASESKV

Take `CC(C)(C)NCC(O)c1cc(F)c(N)c(Br)c1.Cl` (centres unmarked) [A, 1-(4'-amino-3'-bromo-5'-fluoro-phenyl)-2-tert.butylamino-ethanol hydrochloride]: at β2 -receptors, the ED50 – broadly, the dose that gives a 50% effect, or the effect in half of the subjects – is 0.0083 mg/kg and the “Duration of activity (β2 -mimetic activity)” value (shortened to “Duration of activity”) was > 150 min. Further, at β1 -receptors, the ED50 was 0.0185 mg/kg. Besides, the LD50 (as a rule, the dose at which mortality reaches 50%) at 336 h in data set [1] turned out to be 34.5 mg/kg.
Turning to `CC(C)(C)N1COC(c2cc(F)c(N)c(Br)c2)C1.Cl.Cl` (centres unmarked) [B, 5-(4'-amino-3'-bromo-5'-fluoro-phenyl)-3-tert.butyloxazolidine dihydrochloride], at β2 -receptors, the ED50 is 0.0067 mg/kg and the “Duration of activity” value is > 110 min. Besides, the LD50 at 336 h in data set [1] amounted to 27.2 mg/kg.
`Cl.Nc1c(F)cc(C(O)CNC2CC2)cc1Cl` (centres unmarked) [C, 1-(4'-amino-3'-chloro-5'-fluoro-phenyl)-2-cyclopropylamino-ethanol hydrochloride]: the ED50 at β2 -receptors was 0.024 mg/kg; on β1 -receptors it was 0.014 mg/kg. For the same compound, the “Duration of activity” value at β2 -receptors is > 50 min. Moreover, the LD50 at 336 h in data set [1] worked out at 57 mg/kg.
In the case of `CC(C)(C)NCC(O)c1cc(F)c(N)c(Cl)c1.Cl` (centres unmarked) [D, 1-(4'-amino-3'-chloro-5'-fluoro-phenyl)-2-tert.butylamino-ethanol hydrochloride], the ED50 on β2 -receptors is 0.019 mg/kg; on β1 -receptors, 0.008 mg/kg. The “Duration of activity” value on β2 -receptors is > 120 min. Also, in data set [1], the LD50 at 336 h turned out to be 35.1 mg/kg.
As for `Br.CCC(C)(C)NCC(O)c1ccc(N)c(C(F)(F)F)c1` (centres unmarked) [F, 1-(4'-amino-3'-trifluoromethyl-phenyl)-2-tert.pentylamino-ethanol hydrobromide], on β1 -receptors, the ED50 was 0.035 mg/kg.
As to `Nc1c(Cl)cc(C(O)CNC2CCC2)cc1C(F)(F)F` (centres unmarked) [H, 1-(4'-amino-3'-chloro-5'-trifluoromethyl-phenyl)-2-cyclobutylamino-ethanolhydrochloride], on β2 -receptors, the ED50 was 0.0068 mg/kg and the “Duration of activity” value is > 125 min. Further, the LD50 at 336 h in data set [1] turned out to be 36.3 mg/kg.
Take `CC(C)(C)NCC(O)c1cc(Br)c(N)c(C#N)c1.Cl` (centres unmarked) [J, 1-(4'-amino-3'-bromo-5'-cyano-phenyl)-2-tert.butylamino-ethanol hydrochloride]: on β2 -receptors, the ED50 was 0.0048 mg/kg and the “Duration of activity” value is > 40 min. Besides, the LD50 at 336 h in data set [1] stood at 67 mg/kg.
Consider `Cl.Nc1c(F)cc(C(O)CNC2CC2)cc1I` (centres unmarked) [L, 1-(4'-amino-3'-fluoro-5'-iodo-phenyl)-2-cyclopropylamino-ethanol hydrochloride], for which, on β1 -receptors, the ED50 is 0.0013 mg/kg. Moreover, the LD50 at 336 h in data set [1] is 45.2 mg/kg.
Regarding `CC(C)(C)NCC(O)c1cc(F)c(N)c(C#N)c1.Cl` (centres unmarked) [N, 1-(4'-amino-3'-fluoro-5'-cyano-phenyl)-2-tert.butylamino-ethanol hydrochloride], at β2 -receptors, the ED50 is 0.00032 mg/kg and the “Duration of activity” value was > 40 min. Further, the LD50 at 336 h in data set [1] was 58.4 mg/kg.
Turning to `Br.N#Cc1cc(C(O)CNC2CCC2)ccc1N` (centres unmarked) [O, 1-(4'-amino-3'-cyano-phenyl)-2-cyclobutylamino-ethanol hydrobromide], on β2 -receptors, the ED50 is 0.0069 mg/kg and the “Duration of activity” value was 40 min. The LD50 at 336 h in data set [1] stood at 61.8 mg/kg.
Taken in the same sequence, the figures for `CCC(C)(C)NCC(O)c1ccc(N)c(C#N)c1` (centres unmarked) [P, 1-(4'-amino-3'-cyano-phenyl)-2-tert.pentylamino-ethanol] were 0.0036 mg/kg, 65 min and 62 mg/kg.
With `Cl.N#Cc1cc(C(O)CNC2CCC2)cc(Br)c1N` (centres unmarked) [W, 1-(4'-amino-3'-bromo-5'-cyano-phenyl)-2-cyclobutylamino-ethanol hydrochloride], on β2 -receptors, the ED50 is 0.0205 mg/kg and the “Duration of activity” value was > 50 min. The LD50 at 336 h in data set [1] amounted to 38.5 mg/kg.
For `CC(C)(C)NCC(O)c1cc(Br)c(N)c([N+](=O)[O-])c1` (centres unmarked) [Y, 1-(4'-amino-3'-bromo-5'-nitro-phenyl)-2-tert.butylamino-ethanol], on β1 -receptors, the ED50 is 0.0028 mg/kg. For the same compound, the LD50 at 336 h in data set [1] was found to be 35.8 mg/kg.
